From patent publication US6683079B2, “3-(amino-or aminoalkyl) pyridinone derivatives and their use for the treatment of HIV related diseases” (Centre National de la Recherche Scientifique, priority 1998, dated 2004)

Experiments:
[1] = Antiviral activity on HIV-1 nevirapine resistant strain; format: cell-based; conditions: HIV-1 novirapine resistant strain test
Description: (§1) The antiviral activity, the expression and purification of the recombinant HIV-RT enzyme, the reverse transcriptase activities and the inhibition of RT were evaluated as described in WO 97/05 113.
(§2) On an HIV-1 novirapine resistant strain the activities of the compound of example 1 are as follows: […]

[2] = system: HIV-1 novirapine resistant strain; assay: as above; format: cell-based; conditions: Human immunodeficiency virus 1
Description: as §1, §2

[3] = Anti HIV-1 activity, HIV-1 IIIB in PBMC; format: cell-based; conditions: HIV-1 IIIB/PBMC
Description: as §1
(§3) The compound of example 1 has been also tested on various HIV strains and primary cell cultures. The table 1 illustrates the activity of this compound on these strains.

HIV-1 IIIB/PBMC = assay: Anti HIV-1 activity, HIV-1 IIIB in PBMC; format: cell-based; conditions: Human immunodeficiency virus 1
Description: as §1, §3

[4] = target: T1, recombinant HIV-RT enzyme (Human immunodeficiency virus type 1 group M subtype B, UniProt P03366); assay: Inhibition of the reverse transcriptase; format: biochemical
T1 construct: the recombinant HIV-RT enzyme; made in house
Description: as §1
The IC50 of the compound of example 1 for the inhibition of the reverse transcriptase is 20 nM.

HIV-1 AZTres./MT4 = assay: Anti HIV-1 activity, HIV-1 AZT-resistant strain in MT4 cells; format: cell-based; conditions: Human immunodeficiency virus 1, MT4
Description: as §1, §3

[5] = Anti HIV activity, HIV-2 D 194 in PBMC; format: cell-based; conditions: HIV-2 D 194/PBMC
Description: as §1, §3

HIV-2 D 194/PBMC = assay: Anti HIV activity, HIV-2 D 194 in PBMC; format: cell-based; conditions: Human immunodeficiency virus 2
Description: as §1, §3

HIV-ILai isolate = assay: Retrovirucidal effect (residual infectivity on P4 cells); format: cell-based, HIV-1; conditions: 3 hours with virions
Description: The retrovirucidal effect and the reverse transcription were measured as described hereinafter.
(§4) HIV-1 viral suspensions were obtained by coculture of MT4 cells and H9 cells chronically infected by HIV-ILai isolate. 200 μl of a cell supernatant containing viral particles (HIV-ILai: 100 TCID50) were incubated at room temperature with various concentrations of different inhibitors. After 3 hours, virions were washed through 0.02 μm anopore membrane in 1.5 mL Vectaspin tube (Whatman) for 10 minutes at 5 000 g. Each of the three subsequent washes was performed in the same conditions after the viral concentrate was refilled with 500 μL of RPMI medium. Then, the viral concentrate was readjusted to the initial volume with RPMI plus 10% foetal calf serum (FCS). The residual infectivity was assayed on P4 cells as described by CHARNEAU et al. (1994, J. Mol. Biol., 241, 651-662). Briefly, P4 cells were plated using 100 μL of DMEM medium plus 10% FCS in 96 plate multi-wells at 20×10^5 cells per mL. After overnight incubation at 37° C., the supernatant was discarded and the viral preparation (200 μL) was added. One day later the wells were washed three times in PBS. Each well was refilled with 200 μL of a reaction buffer containing 50 mM Tris-HCl pH 8.5, 100 mM 2-mercaptoethanol, 0.05% Triton X-100 and 5 mM 4-methylumbelliferyl β-D-galactopyranoside (MUG). After 3 hours at 37° C., the level of the reaction was measured in a fluorescence microplate reader.
The retrovirucidal effect of the compound according to example 1 has been tested.

[6] = Antiviral activity on HIV-LAI wild type; format: cell-based, HIV-1; conditions: HIV-LAI wild type test
Description: as §1
(§5) The antiviral activity of the compounds according to example 1 has been tested on various strains.

HIV-LAI wild type = assay: Antiviral activity on HIV-LAI wild type; format: cell-based, HIV-1; conditions: HIV-LAI wild type
Description: as §1, §5

[7] = Anti HIV-1 activity, HIV-1 Bal in monocytes/macrophages; format: cell-based; conditions: HIV-1 Bal/Mono/macrophages
Description: as §1, §3

[8] = system: HIV-1 Bal/Mono/macrophages; assay: as above; format: cell-based; conditions: Human immunodeficiency virus 1, Macrophage
Description: as §1, §3

[9] = Anti HIV-1 activity, HIV-1 IIIB in MT4 cells; format: cell-based; conditions: human; HIV-1 IIIIB/MT4
Description: as §1, §3

HIV-1 IIIIB/MT4 = assay: Anti HIV-1 activity, HIV-1 IIIB in MT4 cells; format: cell-based; conditions: Human immunodeficiency virus 1
Description: as §1, §3

HIV-1 strain 103 N = assay: Retrovirucidal effect on HIV-1 strain 103 N (Table 3); format: cell-based; conditions: HIV-1 strain 103N (RT Lys-103 to Asn mutant); pIC50=-log IC50, IC50 in M
Description: as §4
The retrovirucidal effect of each pyridinone derivative listed in table 3 has been assayed according to the teachings of example 2, excepted that the anti-viral effect has been tested on the two following HIV-1 strains:
b) HIV-1 strain 103 N which is a mutant strain bearing a point mutation in the reverse transcriptase gene leading to an enzyme wherein the initial Lys-103 residue is replaced for a Asn residue.
The HIV-1 103 N strain has also been described by SAHLBERG et al.,(1998, Antiviral Res., 37 (3): ASS) and BALZARiNI et al. (1996, Antimicrobial Agents and Chemotherapy, 40 (6): 1454-1466).

HIV-1 strain IIIB = assay: Retrovirucidal effect on HIV-1 strain IIIB (Table 3); format: cell-based; conditions: for HIV1 pIC50 strain IIIB: pIC50=-log IC50, IC50 in M
Summary of the method: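 Virus (100 TCID50 HIV-1 in cell supernatant) exposed to compound 3 h at room temperature, then washed free of compound by membrane filtration. Residual infectivity measured on P4 cells after one day as β-galactosidase activity with MUG substrate (3 h, 37° C), read by fluorescence.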

SMILES	HIV1 pIC50 strain 103N (HIV-1 strain 103 N)	HIV1 pIC50 strain IIIB (HIV-1 strain IIIB)	also measured
CCc1c(C)[nH]c(=O)c(N(C)C)c1Cc1cc(C)cc(C)c1 [Example 1, 3-dimethylamino-4-(3,5-dimethylbenzyl)-5-ethyl-6-methylpyridin-2(1H)-one]			CC50 [1]: > 10000 nM; IC50 [2]: > 10000 nM; CC50 [3]: > 1000 nM; IC50 (HIV-1 IIIB/PBMC): 0.58 nM; IC50 [4]: 20 nM; IC50 (HIV-1 AZTres./MT4): 0.2 nM; CC50 [5]: > 1000 nM; IC50 (HIV-2 D 194/PBMC): > 1000 nM; % inhibition of infectivity (HIV-ILai isolate; 1 μm compound): 83%; % inhibition of infectivity (HIV-ILai isolate; 10 μm compound): 99%; inhibition at 0.01 µM (HIV-ILai isolate; Human immunodeficiency virus 1, 10 nM compound): 26%; inhibition at 0.1 µM (HIV-ILai isolate; Human immunodeficiency virus 1, 100 nM compound): 46%; CC50 [6]: > 100000 nM; S.I. (HIV-LAI wild type): > 33.333; IC50 (HIV-LAI wild type; Human immunodeficiency virus 1): 0.2 nM; CC50 [7]: > 1000 nM; IC50 [8]: 0.004 nM; CC50 [9]: > 1000 nM; IC50 (HIV-1 IIIIB/MT4): 2.4 nM
CCc1c(C)[nH]c(=O)c(N(C)C)c1Cc1ccccc1 [Compound 21]	6.65	8.409	
CCc1c(C)[nH]c(=O)c(N(C)C)c1Cc1ccccc1Cl [Compound 65]	6.405	8.284	
CCc1c(C)[nH]c(=O)c(N)c1C(O)c1cc(C)cc(C)c1 (centres unmarked) [Compound 6]	5.026	5.795	
CCc1c(C)[nH]c(=O)c(N(C)C)c1Cc1cccc(OC)c1 [Compound 121]	6.948	8.469	
CCc1c(C)[nH]c(=O)c(N(C)CC=C(C)C)c1Cc1cccc(C)c1 [Compound 164]	6.505	7.818	
CCc1c(C)[nH]c(=O)c(N(C)C)c1CSc1cccc(C)c1 [Compound 166]	4.518	5.693	
CCc1c(C)[nH]c(=O)c(N)c1C(=O)c1cccc(C)c1 [Compound 87]	5.653	6.46	
Cc1cccc(Cc2c(C)c(C)[nH]c(=O)c2N)c1 [Compound 85]	<4	4.954	
CCc1c(C)[nH]c(=O)c(N(C)C)c1Cc1cccc(Cl)c1 [Compound 40]	7.412	8.585	
CCc1c(C)[nH]c(=O)c(N)c1C(OC)c1cc(C)cc(C)c1 (centres unmarked) [Compound 73]	6.92	8.027	
CCc1c(C)[nH]c(=O)c(NCC(C)C)c1Cc1cc(C)cc(C)c1 [Compound 72]	<4	7.079	
CCc1c(C)[nH]c(=O)c(NCc2ccccc2)c1Cc1cc(C)cc(C)c1 [Compound 29]	5.496	6.555	
CCCc1cccc(Cc2c(CC)c(C)[nH]c(=O)c2N(C)C)c1 [Compound 104]	7.058	8	
CCc1c(C)[nH]c(=O)c(N(C)C(C)C)c1Cc1cc(C)cc(C)c1 [Compound 79]	5.47	6.987	
CCc1c(C)[nH]c(=O)c(N)c1Sc1cc(C)cc(C)c1 [Compound 1]	6.671	7.699	HIV1 pIC50 (pIC50=−log IC50) (HIV-1 strain IIIB): 7,6999
